Experimental findings from US11109593B2, “Isoxazolin-5-one derivative and herbicide containing same as active ingredient” (HOKKO CHEMICAL INDUSTRY CO., LTD., priority 2017, dated 2021) are described below.

Common to all, as to format: in vivo
In experiment [1] the test system is broad leaf weeds (Lindernia pyxidaria and Monochoria vaginalis). Put plainly: Test Example 2: herbicidal effect test by treatment during growing period in paddy rice cultivation (seven days after seeding). To be noted: 120 g/10a active ingredient, assessed 14 days after treatment, dry weight vs untreated area. Summed up:
(§1)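 Herbicidal rate = (1 − treated/untreated mean dry weight) × 100, scored 14 days after application, two replicates per rate. Treatment: diluted emulsion dropped onto paddy water seven days after sowing, 120 g active ingredient per 10 ares, in a glass greenhouse.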

The subject of experiment [2] is Scirpus juncoides. Described as above. Particulars: 120 g/10a active ingredient, assessed 14 days after treatment, dry weight vs untreated area. Summed up:
as §1

For experiment [3], the system named is Echinochloa crus-galli. The experiment is described as above. To be noted: 120 g/10a active ingredient, assessed 14 days after treatment, dry weight vs untreated area. The essentials:
as §1

In experiment [4] the test system is broad leaf weeds (Lindernia pyxidaria and Monochoria vaginalis). Put plainly: Test Example 1: herbicidal effect test by treatment of rice paddy soil (immediately after seeding). Particulars: 120 g/10a active ingredient, dry weight vs untreated area, 14 days after treatment. Summed up:
(§2)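 Pre-emergence paddy water application, 120 g a.i./10 ares, applied immediately post-seeding into ~3 cm flood; glasshouse; duplicate pots; dry weight at 14 d → % inhibition = (1 − treated/untreated) × 100.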

In experiment [5] the test system is Scirpus juncoides. The description is as above. To be noted: 120 g/10a active ingredient, dry weight vs untreated area, 14 days after treatment. Summed up: as §2
Experiment [6] has as its system Echinochloa crus-galli. The description is as above. Particulars: 120 g/10a active ingredient, dry weight vs untreated area, 14 days after treatment. Summed up:
as §2

Experiment [7] deals with Chenopodium album. The experiment in a line: Test Example 4: herbicidal effect test by treatment of leave and stem in dry field farming (seven days after seeding). Particulars: 120 g/10a active ingredient; emulsion sprayed seven days after seeding; evaluated 14 days after treatment. The essentials: (§3)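 Duplicate pots were scored 14 days post-spray by dry weight, herbicidal rate = {1 − treated/untreated average dry weight} × 100. The water-diluted emulsion, equivalent to 120 g active ingredient per 10 ares in 100 L, was applied seven days after sowing 20 seeds each into the upper 1 cm of alluvial soil.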

The subject of experiment [8] is southern crabgrass. The experiment is described as above. Particulars: 120 g/10a active ingredient; emulsion sprayed seven days after seeding; evaluated 14 days after treatment. The essentials:
as §3

Experiment [9] deals with Echinochloa crus-galli. The experiment is described as above. Particulars: 120 g/10a active ingredient; emulsion sprayed seven days after seeding; evaluated 14 days after treatment. The essentials:
as §3

For experiment [10], the system named is Amaranthus viridis. Described as above. To be noted: 120 g/10a active ingredient; emulsion sprayed seven days after seeding; evaluated 14 days after treatment. Summed up: as §3
The test system of experiment [11] is Chenopodium album. The experiment in a line: Test Example 3: herbicidal effect test by treatment of dry field farming soil (one day after seeding). To be noted: 120 g/10a active ingredient, evaluated 14 days after treatment. The essentials: (§4)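 Seeds (20 each) mixed into top 1 cm of alluvium in pots, surface pressed. One day later, diluted emulsion sprayed onto soil, 100 L/10 a, 120 g a.i./10 a. Dry weight at 14 d vs untreated gave % herbicidal rate; n=2.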

For experiment [12], the system named is southern crabgrass. The description is as above. To be noted: 120 g/10a active ingredient, evaluated 14 days after treatment. Summed up:
as §4

Experiment [13] deals with Echinochloa crus-galli. The description is as above. To be noted: 120 g/10a active ingredient, evaluated 14 days after treatment. Summed up: as §4
The test system of experiment [14] is Amaranthus viridis. The description is as above. Particulars: 120 g/10a active ingredient, evaluated 14 days after treatment. The essentials:
as §4

For `Cc1c(Cc2ccccc2N(C(=O)OCC(C)C)S(=O)(=O)C(F)(F)F)c(=O)on1C(C)(C)C` [Compound 1-668], the “Herbicidal rate (%) Lindernia pyxidaria” value in experiment [1] and in experiment [4] was 90% in each case. The “Herbicidal rate (%) Monochoria vaginalis” value in experiment [1] and in [4] was 90% throughout. Also, the “Herbicidal rate (%) Scirpus juncoides” value in experiment [2] and in experiment [5] was 90% throughout. Moreover, the “Herbicidal rate (%) Echinochloa crus-galli” value in experiment [3] and in experiment [6] was 90% in each case. The “herbicidal effect (herbicidal rate), Chenopodium album” value (“herbicidal effect … Chenopodium album” for short) in experiment [7] came to 40%. In addition, the “herbicidal effect (herbicidal rate), southern crabgrass” value (from here on “herbicidal effect … southern crabgrass”) in experiment [8] was determined as 90%. Besides, the “herbicidal effect (herbicidal rate), Echinochloa crus-galli” value in experiment [9] came out at 90%. Also, the “herbicidal effect (herbicidal rate), Amaranthus viridis” value (shortened to “herbicidal effect … Amaranthus viridis”) in [10] is 40%. In experiment [11], the “herbicidal rate, Chenopodium album” value amounted to 90%. Further, the “herbicidal rate, southern crabgrass” value in experiment [12] came out at 90%. Besides, the “herbicidal rate, Echinochloa crus-galli” value in experiment [13] was determined as 90%. The “herbicidal rate, Amaranthus viridis” value in experiment [14] is reported as 90%.
Turning to `CCC(C)n1oc(=O)c(Cc2ccccc2N(C(=O)OCC(C)C)S(=O)(=O)C(F)(F)F)c1C` (centres unmarked) [Compound 1-669], the “Herbicidal rate (%) Lindernia pyxidaria” value in experiment [1] and in experiment [4] was 90% in each case. The “Herbicidal rate (%) Monochoria vaginalis” value in experiment [1] and in experiment [4] was 90% each time. For the same compound, the “Herbicidal rate (%) Scirpus juncoides” value in experiment [2] and in experiment [5] was 90% throughout. Further, the “Herbicidal rate (%) Echinochloa crus-galli” value in experiment [3] and in [6] was 90% each time. The “herbicidal effect … Chenopodium album” value in [7] turned out to be 40%. Besides, the “herbicidal effect … southern crabgrass” value in experiment [8] turned out to be 90%. Also, the “herbicidal effect (herbicidal rate), Echinochloa crus-galli” value in experiment [9] is 90%. Moreover, the “herbicidal effect … Amaranthus viridis” value in [10] came to 40%. The “herbicidal rate, Chenopodium album” value in [11] amounted to 90%. The “herbicidal rate, southern crabgrass” value in experiment [12] is listed as 90%. Also, the “herbicidal rate, Echinochloa crus-galli” value in experiment [13] was found to be 90%. For the same compound, in experiment [14], the “herbicidal rate, Amaranthus viridis” value is 90%.
`CCC(C)Cn1oc(=O)c(Cc2ccccc2N(C(=O)OCC(C)C)S(=O)(=O)C(F)(F)F)c1C` (centres unmarked) [Compound 1-674]: the figures for the “Herbicidal rate (%) Lindernia pyxidaria” value in experiment [1] and in [4] were 70% and 90%, respectively. For the same compound, the “Herbicidal rate (%) Monochoria vaginalis” value in experiment [1] and in experiment [4] was 90% throughout. Also, the “Herbicidal rate (%) Scirpus juncoides” value in [2] and in experiment [5] was 90% throughout. The “Herbicidal rate (%) Echinochloa crus-galli” value in [3] and in experiment [6] was 100% throughout. The “herbicidal effect … Chenopodium album” value in experiment [7] is listed as 50%. For the same compound, the “herbicidal effect … southern crabgrass” value in experiment [8] was found to be 80%. Further, the “herbicidal effect (herbicidal rate), Echinochloa crus-galli” value in experiment [9] stood at 70%. Besides, the “herbicidal effect … Amaranthus viridis” value in [10] is reported as 60%. Also, the “herbicidal rate, Chenopodium album” value in experiment [11] is listed as 40%. Also, the “herbicidal rate, southern crabgrass” value in experiment [12] came out at 50%. The “herbicidal rate, Echinochloa crus-galli” value in experiment [13] is 80%. Further, the “herbicidal rate, Amaranthus viridis” value in experiment [14] is reported as 40%.
With `COCC(C)n1oc(=O)c(Cc2ccccc2N(C(=O)OCC(C)C)S(=O)(=O)C(F)(F)F)c1C` (centres unmarked) [Compound 1-675], the “Herbicidal rate (%) Lindernia pyxidaria” value in [1] and in [4] was 90% throughout. Further, the “Herbicidal rate (%) Monochoria vaginalis” value in experiment [1] and in experiment [4] was 90% in each case. The “Herbicidal rate (%) Scirpus juncoides” value in [2] and in [5] was 90% throughout. Further, the “Herbicidal rate (%) Echinochloa crus-galli” value in experiment [3] and in [6] was 90% each time. Further, the “herbicidal effect … Chenopodium album” value in experiment [7] is 40%. Besides, in [8], the “herbicidal effect … southern crabgrass” value was determined as 90%. The “herbicidal effect (herbicidal rate), Echinochloa crus-galli” value in experiment [9] was determined as 90%. Besides, the “herbicidal effect … Amaranthus viridis” value in [10] was found to be 40%. The “herbicidal rate, Chenopodium album” value in experiment [11] is 90%. In experiment [12], the “herbicidal rate, southern crabgrass” value was 90%. Also, the “herbicidal rate, Echinochloa crus-galli” value in [13] is 90%. Besides, in experiment [14], the “herbicidal rate, Amaranthus viridis” value stood at 90%.
Turning to `CSCCn1oc(=O)c(Cc2ccccc2N(C(=O)OCC(C)C)S(=O)(=O)C(F)(F)F)c1C` [Compound 1-676], the “Herbicidal rate (%) Lindernia pyxidaria” value in experiment [1] and in experiment [4] was 90% in each case. In addition, the “Herbicidal rate (%) Monochoria vaginalis” value in experiment [1] and in experiment [4] was 90% each time. The “Herbicidal rate (%) Scirpus juncoides” value in [2] and in experiment [5] was 90% in each case. Also, the “Herbicidal rate (%) Echinochloa crus-galli” value in experiment [3] and in [6] was 90% each time. In addition, the “herbicidal effect … Chenopodium album” value in experiment [7] amounted to 40%. The “herbicidal effect … southern crabgrass” value in experiment [8] is listed as 90%. The “herbicidal effect (herbicidal rate), Echinochloa crus-galli” value in experiment [9] was found to be 90%. For the same compound, the “herbicidal effect … Amaranthus viridis” value in [10] was 40%. For the same compound, the “herbicidal rate, Chenopodium album” value in experiment [11] came to 90%. Besides, the “herbicidal rate, southern crabgrass” value in experiment [12] worked out at 90%. The “herbicidal rate, Echinochloa crus-galli” value in [13] was 90%. For the same compound, in experiment [14], the “herbicidal rate, Amaranthus viridis” value was determined as 90%.
As to `Cc1c(Cc2ccccc2N(C(=O)OCC(C)C)S(=O)(=O)C(F)(F)F)c(=O)on1C(C)c1ccccc1` (centres unmarked) [Compound 1-678], the “Herbicidal rate (%) Lindernia pyxidaria” value in experiment [1] and in experiment [4] was 90% each time. In addition, the “Herbicidal rate (%) Monochoria vaginalis” value in [1] and in experiment [4] was 90% in each case. Besides, the “Herbicidal rate (%) Scirpus juncoides” value in experiment [2] and in experiment [5] was 90% each time. Besides, the “Herbicidal rate (%) Echinochloa crus-galli” value in [3] and in experiment [6] was 90% each time. Also, in experiment [7], the “herbicidal effect … Chenopodium album” value turned out to be 40%. Besides, the “herbicidal effect … southern crabgrass” value in experiment [8] is 90%. For the same compound, the “herbicidal effect (herbicidal rate), Echinochloa crus-galli” value in experiment [9] is recorded as 90%. In experiment [10], the “herbicidal effect … Amaranthus viridis” value came to 40%. Moreover, the “herbicidal rate, Chenopodium album” value in [11] came to 90%. In experiment [12], the “herbicidal rate, southern crabgrass” value is on record as 90%. Moreover, in experiment [13], the “herbicidal rate, Echinochloa crus-galli” value was 90%. Besides, in experiment [14], the “herbicidal rate, Amaranthus viridis” value stood at 90%.
With `C=CCOC(=O)N(c1ccccc1Cc1c(C)n(C(C)CC)oc1=O)S(=O)(=O)C(F)(F)F` (centres unmarked) [Compound 1-706], the “Herbicidal rate (%) Lindernia pyxidaria” value in experiment [1] and in [4] was 90% each time. For the same compound, the “Herbicidal rate (%) Monochoria vaginalis” value in experiment [1] and in [4] was 90% throughout. Moreover, the “Herbicidal rate (%) Scirpus juncoides” value in experiment [2] and in experiment [5] was 90% in each case. The “Herbicidal rate (%) Echinochloa crus-galli” value in [3] and in experiment [6] was 90% throughout. For the same compound, in experiment [7], the “herbicidal effect … Chenopodium album” value worked out at 40%. The “herbicidal effect … southern crabgrass” value in [8] was 90%. Besides, in experiment [9], the “herbicidal effect (herbicidal rate), Echinochloa crus-galli” value was 90%. Also, the “herbicidal effect … Amaranthus viridis” value in experiment [10] was 40%. Moreover, in experiment [11], the “herbicidal rate, Chenopodium album” value worked out at 90%. In addition, the “herbicidal rate, southern crabgrass” value in experiment [12] came out at 90%. Besides, the “herbicidal rate, Echinochloa crus-galli” value in experiment [13] turned out to be 90%. Moreover, in experiment [14], the “herbicidal rate, Amaranthus viridis” value was 90%.
On to `C=CCOC(=O)N(c1ccccc1Cc1c(C)n(CC(C)C)oc1=O)S(=O)(=O)C(F)(F)F` [Compound 1-707], for which the “Herbicidal rate (%) Lindernia pyxidaria” value in experiment [1] and in experiment [4] was 90% throughout. The “Herbicidal rate (%) Monochoria vaginalis” value in [1] and in [4] was 90% throughout. Further, the “Herbicidal rate (%) Scirpus juncoides” value in experiment [2] and in experiment [5] was 90% in each case. The “Herbicidal rate (%) Echinochloa crus-galli” value in experiment [3] and in experiment [6] was 90% each time. In addition, the “herbicidal effect … Chenopodium album” value in [7] was 40%. The “herbicidal effect … southern crabgrass” value in [8] came to 90%. The “herbicidal effect (herbicidal rate), Echinochloa crus-galli” value in experiment [9] is 90%. In addition, in experiment [10], the “herbicidal effect … Amaranthus viridis” value is 40%. Moreover, in experiment [11], the “herbicidal rate, Chenopodium album” value is on record as 90%. For the same compound, the “herbicidal rate, southern crabgrass” value in experiment [12] is 90%. Further, in experiment [13], the “herbicidal rate, Echinochloa crus-galli” value stood at 90%. In addition, the “herbicidal rate, Amaranthus viridis” value in experiment [14] is given as 90%.
